Measured values reported in PMC4014072 (Molecular and cellular biochemistry, 2010).

Molecular target: LdLip3::HA (LdLip3 secretory lipase) (Leishmania donovani, UniProt D7P7V3)
Experiment: fluorogenic 4MU release assay, anti-HA affinity-purified enzyme
Assay type: biochemical
Conditions: 150 µM substrate, McIlvaine buffer pH 6.0, 37 and 42 °C, 30 min

SMILES: CCCCCCCCCCCCCCCCCC(=O)Oc1ccc2c(C)cc(=O)oc2c1 [4MU-stearate]
- fluorogenic 4MU release assay, anti-HA affinity-purified enzyme: LdLip3∷HA chimeric protein and pKSNEO controls were subsequently analyzed for lipase activity using 4MU-stearate
